Experimental data as given in paper PMC7504818, “Synthetic Analogues of Aminoadamantane as Influenza Viral Inhibitors—In Vitro, In Silico and QSAR Studies” (Molecules, 2020).
Like-named read-outs stand apart in the source and are kept apart here.

Experiments:
[1] = system: MDCK cells; details: for HNTC (μM) MDCK Cells: high-nontoxic concentration
[2] = system: influenza virus A/H3N2, strain Hong Kong 68; experiment: Antiviral activity against influenza virus A/H3N2, strain Hong Kong 68 (crystal violet uptake assay in MDCK cells); type: cell-based; details: for Active: experimental class, active if IC50 < 30 μM
Experimental: The synthesized compounds were tested for antiviral activity against the influenza virus A/H3N2, strain Hong Kong 68.
In order to identify new potential antiviral drugs, small amounts of extracts or compounds have to be examined for cytotoxicity and antiviral activity in primary screening using a rapid, easy, inexpensive and highly standardized test system. The cytotoxic and the antiviral effects were quantified using a crystal violet uptake assay allowing automated handling of large numbers of candidate agents. […] Madin-Darby Kanine Kidney Cells (MDCK) cells were seeded at 2 × 10^4 cells per well in 96-well flat-bottomed microtiter plates (Falcon 3075). The cytotoxicity of the test compounds was determined on 2-day-old confluent MDCK cell monolayers grown in the internal 60 wells (5% CO2, 37 °C). After removal of the growth medium, two-fold dilutions of the compounds in 100 µL test medium were added and incubated at 37 °C in a 5% CO2 atmosphere for 72 h. Cells in six wells without compound treatment served as basic controls. The Dynex Immuno Assay System (DIAS, Guernsey, UK) developed for automated ELISA techniques was applied to wash gently, stain, measure and analyze the viability of the cell monolayers in cytotoxic, as well as antiviral assays. The staining procedure undertaken with crystal violet was based on the principles described by Nain et al. for the determination of the cytotoxic activity of TNF-α [20]. At first, the supernatant was aspirated and the cell monolayers were washed three times with […] physiological sodium chloride solution to remove dead cells. Secondly, the cells were fixed and stained in one step with 50 µL of 0.03% crystal violet (w/v) in 20% methanol for 10 min. […] Then the optical density of individual wells was quantified spectrophotometrically at 540/630 nm and analyzed with the DIAS. Cell viability was evaluated as the percentage of the mean value of optical density, resulting from the six cell controls, which was set 100%. The 50% cytotoxic concentrations (CC50) were calculated from the mean dose–response curves of three assays each with two parallels.
To exclude non-specific antiviral activities of test compounds, their cytotoxic effects have to be determined not only on confluent cell monolayers but also on proliferating cell cultures in the primary antiviral screening. The cytotoxicity and the growth inhibition of compounds were quantified using an automated crystal violet staining procedure and the electronic cell analyzer system CASY 1, respectively, on day 3 after compound application. The 50% cytotoxic and growth inhibition concentrations were calculated from the mean dose–response curve (3.9 through 1000 µg mL^−1; dilution factor 2) of three separate experiments each with two parallels in the indicated cell lines.

[3] = in vitro; details: dog
[4] = set-up: method as in doi:10.1177/095632029200300305, PMID 9706043, PMID 19116869; details: orally introduced; cited from earlier work
[5] = Influenza A virus, H3N2, MDCK, read-out: IC50 (μM) Against A/Hong Kong/68
[6] = MDCK, Table 4, against A/Hong Kong/68, QSAR numbering, read-out: IC50

| Compound | HNTC (μM) MDCK Cells [1] | IC50 [2, 5] | CC50 [3] | CC50 ([1]; read-out: CC50 (μM) MDCK Cells, 50% cytotoxic concentration, confluent MDCK monolayers, 72 h) | IC50 ([2]; Table 4, against A/Hong Kong/68, QSAR numbering, read-out: IC50) | Active [2] | IC50 ([2]; influenza A/H3N2 Hong Kong/68, read-out: IC50 (μM) Against A/Hong Kong/68) | bioavailability, times higher than acyclovir [4] | IC50 [2, 6] |
| --- | --- | --- | --- | --- | --- | --- | --- | --- | --- |
| CC(NC(=O)CCN)C12CC3CC(CC(C3)C1)C2 (stereo not drawn) [Compound 4i, β-Ala-Rimantadine] | 20.78 µM | 15.7 µM | > 100000 nM |  |  |  |  |  |  |
| C[C@H](NC(=N)N)C(=O)NC12CC3CC(CC(C3)C1)C2 [Compound 7a, Gua-Ala-Am] | >100 µM |  |  | > 100 µM | 18.4 µM | Yes (Active compound only if IC50 < 30 μM) | 18.4 µM |  |  |
| CC(C)[C@H](N)C(=O)OCCOCn1cnc2c(=O)[nH]c(N)nc21 [Valacyclovir] |  |  |  |  |  |  |  | 3–4 times |  |
| NC12CC3CC(CC(C3)C1)C2 [Amantadine, reference compound] |  | 0.39 µM | > 100000 nM |  |  | Yes (Active compound only if IC50 < 30 μM) |  |  | 0.39 µM |
| NC(Cc1ccccc1)C(=O)NC12CC3CC(CC(C3)C1)C2 (stereo not shown) [Compound 5e, phenylalanyl-amantadine] | 15.1 µM | 0.75 µM | 89400 nM |  |  | Yes (Active compound only if IC50 < 30 μM) |  |  | 0.75 µM |
| NC(Cc1ccc(F)cc1)C(=O)NC12CC3CC(CC(C3)C1)C2 (stereo not shown) [Compound 5g, (4-F)-phenylalanyl-amantadine] | 15.35 µM | 0.81 µM | 83600 nM |  |  | Yes (Active compound only if IC50 < 30 μM) |  |  | 0.81 µM |
| CC(N)C(=O)NC12CC3CC(CC(C3)C1)C2 (stereo not shown) [Compound 5a, Ala-Amantadine] | >100 µM | 1.41 µM | > 100000 nM |  |  | Yes (Active compound only if IC50 < 30 μM) |  |  | 1.41 µM |
| CC(C)C(N)C(=O)NC12CC3CC(CC(C3)C1)C2 (stereo not shown) [Compound 5h, Val-Amantadine] | >100 µM | 1.32 µM | > 100000 nM |  |  | Yes (Active compound only if IC50 < 30 μM) |  |  | 1.32 µM |
| CC(NC(=O)[C@H](N)Cc1ccc(F)cc1)C12CC3CC(CC(C3)C1)C2 (stereo partly drawn) [Compound 4f, (4-F)-D-Phe-Rim] | 6.23 µM |  | 19900 nM |  |  |  |  |  |  |
| CC(NC(=O)C(N)Cc1ccc(F)cc1)C12CC3CC(CC(C3)C1)C2 (stereo not shown) [Compound 4g, (4-F)-Phe-Rim] | 4.37 µM |  | 15500 nM |  |  |  |  |  |  |
| CCOC(=O)C1=C[C@@H](OC(CC)CC)[C@H](NC(C)=O)[C@@H](N)C1 [Oseltamivir, reference compound] | >100 µM | 0.002 µM | > 100000 nM |  |  |  |  |  |  |
